According to ChEMBL document CHEMBL1155243, “In vitro erythrocytic uptake studies of artemisinin and selected derivatives using LC-MS and 2D-QSAR analysis of uptake in parasitized erythrocytes” (Bioorg Med Chem, 2009):

Experiment: Drug uptake in human type-A RBC at 3.55 uM after 2 hrs by LC-MS analysis
Assay type: ADME, cell-based
Settings: erythrocyte
Work on `C[C@H]1C(=O)O[C@@H]2O[C@@]3(C)CC[C@@H]4[C@@]2(OO3)[C@H]1CC[C@]4(C)O` yielded a Drug uptake of 32.99%.
For `C[C@@H]1[C@@H](OC(=O)Nc2cccc3ccccc23)C[C@H]2[C@@H](C)C(=O)O[C@@H]3O[C@]4(C)CC[C@@H]1[C@]32OO4`, the Drug uptake was 32.63%.
`C[C@@H]1CC[C@H]2[C@@H](CCCc3ccc(S(C)(=O)=O)cc3)C(=O)O[C@@H]3O[C@]4(C)CC[C@@H]1[C@]32OO4` gave a Drug uptake of 38.53%.
Molecule `CCCCCCCCCCCCCC[C@H]1C(=O)O[C@@H]2O[C@]3(C)CC[C@H]4[C@H](C)CC[C@@H]1[C@@]24O3` has a Drug uptake of 45.09%.
`C[C@@H]1CC[C@H]2[C@@H](C)C(=O)O[C@@H]3O[C@@]4(C)CC[C@@H]1[C@]32OO4` [ARTEMISININ] showed a Drug uptake of 34.68%.
`C[C@@H]1CC[C@H]2[C@@H](CCCc3cc(C(F)(F)F)cc(C(F)(F)F)c3)CO[C@@H]3O[C@]4(C)CC[C@@H]1[C@]32OO4` showed a Drug uptake of 42.11%.
`C[C@@H]1[C@@H](OC(=O)NC2CC2c2ccccc2)C[C@H]2[C@@H](C)C(=O)O[C@@H]3O[C@]4(C)CC[C@@H]1[C@]32OO4` (some centres undefined) gave a Drug uptake of 32.31%.
Work on `C[C@@H]1CC[C@H]2[C@@H](CCCc3cccc(Cl)c3)[C@H](O)O[C@@H]3O[C@]4(C)CC[C@@H]1[C@]32OO4` yielded a Drug uptake of 40.13%.
`CC(C)CN1C(=O)C[C@@H]2CC[C@@H](C)[C@@H]3CC[C@]4(C)OO[C@@]23[C@H]1O4` gave a Drug uptake of 35.17%.
Work on `C[C@@H]1[C@@H](OC(=O)Nc2ccccc2)C[C@H]2[C@@H](C)C(=O)O[C@@H]3O[C@]4(C)CC[C@@H]1[C@]32OO4` yielded a Drug uptake of 32.18%.
With `C[C@@H]1CC[C@H]2[C@@H](CCCc3cc(F)cc(F)c3)CO[C@@H]3O[C@]4(C)CC[C@@H]1[C@]32OO4` the Drug uptake was 40.01%.
Work on `C[C@@H]1CC[C@H]2[C@@H](CCCc3ccc(N(C)C)cc3)C(=O)O[C@@H]3O[C@]4(C)CC[C@@H]1[C@]32OO4.Cl` yielded a Drug uptake of 32.82%.
`C[C@@H]1CC[C@H]2[C@@H](CCCc3cc(C(F)(F)F)cc(C(F)(F)F)c3)C(=O)O[C@@H]3O[C@]4(C)CC[C@@H]1[C@]32OO4` gave a Drug uptake of 41.07%.
For `C[C@@H]1CC[C@H]2[C@@H](CC(=O)O)C(=O)O[C@@H]3O[C@]4(C)CC[C@@H]1[C@]32OO4`, the Drug uptake was 33.92%.
In the case of `C[C@@H]1CC[C@H]2[C@@H](CCCc3cc(C(F)(F)F)cc(C(F)(F)F)c3)[C@H](O)O[C@@H]3O[C@]4(C)CC[C@@H]1[C@]32OO4`, the Drug uptake was 40.43%.
Work on `C[C@@H]1CC[C@H]2CC(=O)O[C@@H]3O[C@]4(CCc5ccccc5)CC[C@@H]1[C@@]23OO4` yielded a Drug uptake of 38.96%.
`C[C@@H]1CC[C@H]2[C@@H](CCCc3ccc(O)cc3)C(=O)O[C@@H]3O[C@]4(C)CC[C@@H]1[C@]32OO4.Cl` showed a Drug uptake of 39.01%.
Molecule `C[C@@H]1CC[C@H]2CC(=O)N(CCc3ccccc3)[C@@H]3O[C@]4(C)CC[C@@H]1[C@@]23OO4` has a Drug uptake of 38.43%.
`C[C@@H]1CC[C@H]2[C@@H](CN3C(=O)CSC3=O)C(=O)O[C@@H]3O[C@]4(C)CC[C@@H]1[C@]32OO4` gave a Drug uptake of 33.94%.
`C[C@@H]1CC[C@H]2[C@@H](CN3C(=O)CCC3=O)C(=O)O[C@@H]3O[C@]4(C)CC[C@@H]1[C@]32OO4` showed a Drug uptake of 36.57%.
Molecule `C[C@@H]1CC[C@H]2CC(=O)O[C@@H]3O[C@]4(CC(=O)O)CC[C@@H]1[C@@]23OO4` has a Drug uptake of 34.03%.
In the case of `CCCC[C@H]1C(=O)O[C@@H]2O[C@]3(CC)CC[C@H]4[C@H](C)CC[C@@H]1[C@@]24OO3`, the Drug uptake was 39.11%.
Work on `C[C@@H]1[C@@H](O)C[C@H]2[C@@H](C)C(=O)O[C@@H]3O[C@]4(C)CC[C@@H]1[C@]32OO4` yielded a Drug uptake of 33.1%.

Experiment: Drug uptake in human type-A erythrocytes infected with Plasmodium falciparum D6 at 3.55 uM after 2 hrs by LC-MS analysis
Assay type: ADME, cell-based
Settings: erythrocyte
For `C[C@H]1C(=O)O[C@@H]2O[C@@]3(C)CC[C@@H]4[C@@]2(OO3)[C@H]1CC[C@]4(C)O`, the Drug uptake was 53.89%.
`C[C@@H]1[C@@H](OC(=O)Nc2cccc3ccccc23)C[C@H]2[C@@H](C)C(=O)O[C@@H]3O[C@]4(C)CC[C@@H]1[C@]32OO4` showed a Drug uptake of 51.68%.
`C[C@@H]1CC[C@H]2[C@@H](CCCc3ccc(S(C)(=O)=O)cc3)C(=O)O[C@@H]3O[C@]4(C)CC[C@@H]1[C@]32OO4` showed a Drug uptake of 61.9%.
`CCCCCCCCCCCCCC[C@H]1C(=O)O[C@@H]2O[C@]3(C)CC[C@H]4[C@H](C)CC[C@@H]1[C@@]24O3` showed a Drug uptake of 73%.
`C[C@@H]1CC[C@H]2[C@@H](C)C(=O)O[C@@H]3O[C@@]4(C)CC[C@@H]1[C@]32OO4` [ARTEMISININ] showed a Drug uptake of 61.07%.
Work on `C[C@@H]1CC[C@H]2[C@@H](CCCc3cc(C(F)(F)F)cc(C(F)(F)F)c3)CO[C@@H]3O[C@]4(C)CC[C@@H]1[C@]32OO4` yielded a Drug uptake of 72%.
For `C[C@@H]1[C@@H](OC(=O)NC2CC2c2ccccc2)C[C@H]2[C@@H](C)C(=O)O[C@@H]3O[C@]4(C)CC[C@@H]1[C@]32OO4` (some centres undefined), the Drug uptake was 51.63%.
In the case of `C[C@@H]1CC[C@H]2[C@@H](CCCc3cccc(Cl)c3)[C@H](O)O[C@@H]3O[C@]4(C)CC[C@@H]1[C@]32OO4`, the Drug uptake was 71.21%.
With `CC(C)CN1C(=O)C[C@@H]2CC[C@@H](C)[C@@H]3CC[C@]4(C)OO[C@@]23[C@H]1O4` the Drug uptake was 61.51%.
For `C[C@@H]1[C@@H](OC(=O)Nc2ccccc2)C[C@H]2[C@@H](C)C(=O)O[C@@H]3O[C@]4(C)CC[C@@H]1[C@]32OO4`, the Drug uptake was 51.04%.
Work on `C[C@@H]1CC[C@H]2[C@@H](CCCc3cc(F)cc(F)c3)CO[C@@H]3O[C@]4(C)CC[C@@H]1[C@]32OO4` yielded a Drug uptake of 70.91%.
Work on `C[C@@H]1CC[C@H]2[C@@H](CCCc3ccc(N(C)C)cc3)C(=O)O[C@@H]3O[C@]4(C)CC[C@@H]1[C@]32OO4.Cl` yielded a Drug uptake of 51.92%.
For `C[C@@H]1CC[C@H]2[C@@H](CCCc3cc(C(F)(F)F)cc(C(F)(F)F)c3)C(=O)O[C@@H]3O[C@]4(C)CC[C@@H]1[C@]32OO4`, the Drug uptake was 72.09%.
With `C[C@@H]1CC[C@H]2[C@@H](CC(=O)O)C(=O)O[C@@H]3O[C@]4(C)CC[C@@H]1[C@]32OO4` the Drug uptake was 54.23%.
Work on `C[C@@H]1CC[C@H]2[C@@H](CCCc3cc(C(F)(F)F)cc(C(F)(F)F)c3)[C@H](O)O[C@@H]3O[C@]4(C)CC[C@@H]1[C@]32OO4` yielded a Drug uptake of 71.76%.
For `C[C@@H]1CC[C@H]2CC(=O)O[C@@H]3O[C@]4(CCc5ccccc5)CC[C@@H]1[C@@]23OO4`, the Drug uptake was 62.34%.
Work on `C[C@@H]1CC[C@H]2[C@@H](CCCc3ccc(O)cc3)C(=O)O[C@@H]3O[C@]4(C)CC[C@@H]1[C@]32OO4.Cl` yielded a Drug uptake of 63.09%.
With `C[C@@H]1CC[C@H]2CC(=O)N(CCc3ccccc3)[C@@H]3O[C@]4(C)CC[C@@H]1[C@@]23OO4` the Drug uptake was 61.8%.
With `C[C@@H]1CC[C@H]2[C@@H](CN3C(=O)CSC3=O)C(=O)O[C@@H]3O[C@]4(C)CC[C@@H]1[C@]32OO4` the Drug uptake was 57.69%.
With `C[C@@H]1CC[C@H]2[C@@H](CN3C(=O)CCC3=O)C(=O)O[C@@H]3O[C@]4(C)CC[C@@H]1[C@]32OO4` the Drug uptake was 66.06%.
`C[C@@H]1CC[C@H]2CC(=O)O[C@@H]3O[C@]4(CC(=O)O)CC[C@@H]1[C@@]23OO4` gave a Drug uptake of 54.51%.
Molecule `CCCC[C@H]1C(=O)O[C@@H]2O[C@]3(CC)CC[C@H]4[C@H](C)CC[C@@H]1[C@@]24OO3` has a Drug uptake of 62.5%.
For `C[C@@H]1[C@@H](O)C[C@H]2[C@@H](C)C(=O)O[C@@H]3O[C@]4(C)CC[C@@H]1[C@]32OO4`, the Drug uptake was 53.9%.

Experiment: Toxicity in human type-A RBC assessed as hematocrit at 3.55 uM after 2 hrs
Assay type: cell-based
Settings: erythrocyte
In the case of `C[C@H]1C(=O)O[C@@H]2O[C@@]3(C)CC[C@@H]4[C@@]2(OO3)[C@H]1CC[C@]4(C)O`, the Activity was 33%.
In the case of `C[C@@H]1[C@@H](OC(=O)Nc2cccc3ccccc23)C[C@H]2[C@@H](C)C(=O)O[C@@H]3O[C@]4(C)CC[C@@H]1[C@]32OO4`, the Activity was 33%.
In the case of `C[C@@H]1CC[C@H]2[C@@H](CCCc3ccc(S(C)(=O)=O)cc3)C(=O)O[C@@H]3O[C@]4(C)CC[C@@H]1[C@]32OO4`, the Activity was 33%.
`CCCCCCCCCCCCCC[C@H]1C(=O)O[C@@H]2O[C@]3(C)CC[C@H]4[C@H](C)CC[C@@H]1[C@@]24O3` showed an Activity of 33%.
Molecule `C[C@@H]1CC[C@H]2[C@@H](C)C(=O)O[C@@H]3O[C@@]4(C)CC[C@@H]1[C@]32OO4` [ARTEMISININ] has an Activity of 33%.
Molecule `C[C@@H]1CC[C@H]2[C@@H](CCCc3cc(C(F)(F)F)cc(C(F)(F)F)c3)CO[C@@H]3O[C@]4(C)CC[C@@H]1[C@]32OO4` has an Activity of 33%.
`C[C@@H]1[C@@H](OC(=O)NC2CC2c2ccccc2)C[C@H]2[C@@H](C)C(=O)O[C@@H]3O[C@]4(C)CC[C@@H]1[C@]32OO4` (some centres undefined) showed an Activity of 33%.
In the case of `C[C@@H]1CC[C@H]2[C@@H](CCCc3cccc(Cl)c3)[C@H](O)O[C@@H]3O[C@]4(C)CC[C@@H]1[C@]32OO4`, the Activity was 33%.
With `CC(C)CN1C(=O)C[C@@H]2CC[C@@H](C)[C@@H]3CC[C@]4(C)OO[C@@]23[C@H]1O4` the Activity was 33%.
Work on `C[C@@H]1[C@@H](OC(=O)Nc2ccccc2)C[C@H]2[C@@H](C)C(=O)O[C@@H]3O[C@]4(C)CC[C@@H]1[C@]32OO4` yielded an Activity of 33%.
With `C[C@@H]1CC[C@H]2[C@@H](CCCc3cc(F)cc(F)c3)CO[C@@H]3O[C@]4(C)CC[C@@H]1[C@]32OO4` the Activity was 33%.
With `C[C@@H]1CC[C@H]2[C@@H](CCCc3ccc(N(C)C)cc3)C(=O)O[C@@H]3O[C@]4(C)CC[C@@H]1[C@]32OO4.Cl` the Activity was 33%.
For `C[C@@H]1CC[C@H]2[C@@H](CCCc3cc(C(F)(F)F)cc(C(F)(F)F)c3)C(=O)O[C@@H]3O[C@]4(C)CC[C@@H]1[C@]32OO4`, the Activity was 33%.
Molecule `C[C@@H]1CC[C@H]2[C@@H](CC(=O)O)C(=O)O[C@@H]3O[C@]4(C)CC[C@@H]1[C@]32OO4` has an Activity of 33%.
For `C[C@@H]1CC[C@H]2[C@@H](CCCc3cc(C(F)(F)F)cc(C(F)(F)F)c3)[C@H](O)O[C@@H]3O[C@]4(C)CC[C@@H]1[C@]32OO4`, the Activity was 33%.
Work on `C[C@@H]1CC[C@H]2CC(=O)O[C@@H]3O[C@]4(CCc5ccccc5)CC[C@@H]1[C@@]23OO4` yielded an Activity of 33%.
`C[C@@H]1CC[C@H]2[C@@H](CCCc3ccc(O)cc3)C(=O)O[C@@H]3O[C@]4(C)CC[C@@H]1[C@]32OO4.Cl` gave an Activity of 33%.
`C[C@@H]1CC[C@H]2CC(=O)N(CCc3ccccc3)[C@@H]3O[C@]4(C)CC[C@@H]1[C@@]23OO4` gave an Activity of 33%.
For `C[C@@H]1CC[C@H]2[C@@H](CN3C(=O)CSC3=O)C(=O)O[C@@H]3O[C@]4(C)CC[C@@H]1[C@]32OO4`, the Activity was 33%.
Molecule `C[C@@H]1CC[C@H]2[C@@H](CN3C(=O)CCC3=O)C(=O)O[C@@H]3O[C@]4(C)CC[C@@H]1[C@]32OO4` has an Activity of 33%.
With `C[C@@H]1CC[C@H]2CC(=O)O[C@@H]3O[C@]4(CC(=O)O)CC[C@@H]1[C@@]23OO4` the Activity was 33%.
`CCCC[C@H]1C(=O)O[C@@H]2O[C@]3(CC)CC[C@H]4[C@H](C)CC[C@@H]1[C@@]24OO3` gave an Activity of 33%.
`C[C@@H]1[C@@H](O)C[C@H]2[C@@H](C)C(=O)O[C@@H]3O[C@]4(C)CC[C@@H]1[C@]32OO4` showed an Activity of 33%.
